ChEMBL document CHEMBL1127467, “Molecular modeling studies of some choline acetyltransferase inhibitors” (J Med Chem, 1994)

Target: T1, Choline O-acetyltransferase (Homo sapiens, UniProt P28329)
T1 sequence (P28329 whole entry): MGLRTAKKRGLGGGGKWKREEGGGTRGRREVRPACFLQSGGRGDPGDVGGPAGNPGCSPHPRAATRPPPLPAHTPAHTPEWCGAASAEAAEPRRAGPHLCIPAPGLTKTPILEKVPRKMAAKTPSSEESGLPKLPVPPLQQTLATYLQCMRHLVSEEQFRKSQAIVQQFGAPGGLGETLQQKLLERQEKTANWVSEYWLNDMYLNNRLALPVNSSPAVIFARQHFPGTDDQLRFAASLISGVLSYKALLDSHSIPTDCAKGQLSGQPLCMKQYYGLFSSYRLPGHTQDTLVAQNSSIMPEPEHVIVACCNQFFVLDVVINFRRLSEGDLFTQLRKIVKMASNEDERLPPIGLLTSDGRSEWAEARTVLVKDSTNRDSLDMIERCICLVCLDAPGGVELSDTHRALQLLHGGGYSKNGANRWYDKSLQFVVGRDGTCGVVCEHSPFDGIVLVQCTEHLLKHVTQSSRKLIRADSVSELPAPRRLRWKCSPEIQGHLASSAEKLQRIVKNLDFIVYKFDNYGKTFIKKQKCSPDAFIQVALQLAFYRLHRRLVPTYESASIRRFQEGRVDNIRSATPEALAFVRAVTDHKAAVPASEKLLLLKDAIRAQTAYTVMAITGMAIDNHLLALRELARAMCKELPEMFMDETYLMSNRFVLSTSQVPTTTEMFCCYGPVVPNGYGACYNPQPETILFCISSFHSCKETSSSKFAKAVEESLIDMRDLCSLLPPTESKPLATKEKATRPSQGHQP
Test: Inhibition of Choline Acetyltransferase
Details: read-out: I50

Row | Compound | IC50 [µM]
1 | C[n+]1ccc(/C=C/c2cc3ccccc3c3ccccc23)cc1 | > 100
2 | C[n+]1ccc(/C=C/c2cccc3ccccc23)cc1 | 0.4
3 | Cc1c[n+](C)ccc1/C=C/c1ccccc1 | 5
4 | C[n+]1ccc(/C=C/c2ccccc2)cc1 | 13.5
5 | COc1ccc(/C=C/c2cc[n+](C)cc2)c2ccccc12 | > 100
6 | C[n+]1ccc(/C=C/c2cccc(Cl)c2)cc1 | 2.3
7 | CCc1c[n+](C)ccc1/C=C/c1ccccc1 | 19
8 | C[n+]1ccc(/C=C/c2ccccc2)c2ccccc21 | 3.5
9 | C/C(=C\c1ccccc1)c1cc[n+](C)cc1 | > 100
10 | C[n+]1ccc(/C=C/c2ccccc2Cl)cc1 | 28
11 | C[n+]1ccc(/N=C/c2cccc3ccccc23)cc1 | > 100
12 | Cc1c[n+](C)ccc1/C=C/c1cccc2ccccc12 | 0.4
13 | C[n+]1ccc(/C=N/c2cccc3ccccc23)cc1 | 1.5
